pIC50: −log10 of the molar value.
Experiments:
[1] = molecular target: human estrogen receptor (ERα) (Homo sapiens (Human), UniProt P03372); experiment: Human ERα Reporter Assay (Indigo Biosciences); assay type: cell-based; conditions: antagonist mode, 17β-estradiol 8E-10 M, 24 hours
Procedure: All reagents used in this assay was supplied in the Human ERα Reporter Assay by Indigo Biosciences # IB00401. In an effort to screen selective estrogen receptor degraders (SERDs), the Human ERα Reporter Assay, supplied by Indigo Biosciences, was utilized to quantify antagonist functional activity against the human estrogen receptor. Reporter cells were thawed at 37° C. and added to pre-warmed to 37° C. cell recovery medium (CRM). Stock concentration of 17β-estradiol was serially diluted in CRM. Diluted 17β-estradiol was added to CRM containing reporter cells resulting in a working concentration of 1.6 nM (2×). Cells plus 17β-estradiol were dispensed in a kit-supplied white walled 96-well plate. Concentrated stocks of test compounds were diluted to 2× working concentrations in cell screening medium (CSM). 2× concentrated compounds were added to the plated cells in a dose-dependent manner resulting in a final concentration range of 1E-11 to 1E-5 M and a final 17β-estradiol concentration of 8E-10 M. Assay plates were incubated for 24 hours in a humidified 37° C. incubator. Culture medium was removed from the assay plates by inversion. Detection substrate and buffer was warmed to room temperature, mixed thoroughly, and immediately added to the assay plates. Assay plates were incubated for 15 minutes at room temperature protected from light. Luminescence was measured in a Synergy HTX luminescence plate reader. Data is processed utilizing GraphPad Prism 7 by graphing the relative light units measured at each compound concentration. This procedure was used to produce the graph in FIG. 1, FIG. 9, FIG. 10, FIG. 11, FIG. 12, FIG. 13, and FIG. 14.
(§1) In the below table for the Estrogen Receptor Degradation Assay and the Human ERα Reporter Assay: […]

[2] = molecular target: estrogen receptor α in MCF7 cells (Homo sapiens (Human), UniProt P03372); experiment: Estrogen Receptor (ER) Degradation Assay (In-Cell Western); assay type: cell-based; conditions: for pIC50: 24 hours, In-Cell Western; for % Estrogen Receptor Remaining: vehicle set to 100%
Chain of estrogen receptor α in MCF7 cells (P03372 whole entry): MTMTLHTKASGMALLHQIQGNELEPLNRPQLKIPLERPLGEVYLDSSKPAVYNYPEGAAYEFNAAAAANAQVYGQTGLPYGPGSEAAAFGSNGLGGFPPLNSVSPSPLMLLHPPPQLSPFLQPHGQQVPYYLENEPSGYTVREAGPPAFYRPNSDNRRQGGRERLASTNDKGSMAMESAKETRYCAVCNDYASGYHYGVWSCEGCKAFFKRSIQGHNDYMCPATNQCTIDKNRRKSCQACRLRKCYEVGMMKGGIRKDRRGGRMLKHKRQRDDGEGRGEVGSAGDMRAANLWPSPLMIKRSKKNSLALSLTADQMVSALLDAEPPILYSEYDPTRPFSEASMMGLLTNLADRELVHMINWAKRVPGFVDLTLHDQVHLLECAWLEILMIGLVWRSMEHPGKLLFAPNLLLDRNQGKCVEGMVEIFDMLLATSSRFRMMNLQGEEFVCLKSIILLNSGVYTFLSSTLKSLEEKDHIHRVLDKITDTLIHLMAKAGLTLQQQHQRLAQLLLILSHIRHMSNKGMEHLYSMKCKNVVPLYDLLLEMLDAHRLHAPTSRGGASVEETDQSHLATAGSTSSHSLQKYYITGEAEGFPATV
Procedure: A screening strategy was implemented utilizing an In-Cell Western assay to measure their ability to degrade the estrogen receptor in vitro. MCF7 cells, which are estrogen receptor positive, were plated at a cell density of […] into black walled clear bottom 96-well plates. Cells were incubated in phenol red free Dulbecco's Modified Eagle Media (DMEM) supplemented with 8% charcoal-stripped fetal bovine calf serum for 24 hours in a humidified 37° C. incubator. Concentrated stock compounds were diluted to 10× in complete media. Compounds were added to the plated cells in a dose-dependent manner ranging from 1E-12 to 1E-05 M and incubated for an additional 24 hours at 37° C. Culture medium was removed from the culture plates by gentle inversion. Cells were fixed in 4% paraformaldehyde in 1× phosphate buffered saline-calcium magnesium free (PBS-CMF) for 15 minutes at room temperature, washed 3 times for 5 minutes each in 1×PBS-CMF. Cells were permeabilized in immunofluorescence (IF) blocking buffer (Cell Signaling #12411) containing 0.3% Triton X100. Cells were washed 3 times for 5 minutes each in 1×PBS-CMF and incubated in estrogen receptor α (D6R2W) rabbit primary antibody (Cell Signaling #13258) diluted 1:300 in IF antibody dilution buffer (Cell Signaling #12378). Cells were washed 3 times for 5 minutes each in 1×PBS-CMF and stained with goat anti-rabbit (Biotium #CF770) secondary antibody diluted 1:2000 in IF antibody dilution buffer and normalizing stain CellTag 700 diluted 1:500 (Licor #926-41090). ER protein expression was assessed by the Licor Odyssey CLx imaging system using Image Studio v5.2. Data is processed utilizing GraphPad Prism 7 by subtracting background from the vehicle and setting the vehicle to 100% ER activity, followed by comparing treated samples to vehicle. This procedure was used to produce the graph in FIG. 2, FIG. 3, FIG. 4, FIG. 5, FIG. 6, FIG. 7, and FIG. 8.
as §1

Chain of human estrogen receptor (ERα) (P03372 whole entry): as above

pIC50 [1] | pIC50 [2] | SMILES | % Estrogen Receptor Remaining [2]
> 6.00 | > 6.00 | Cc1cc(F)cc(C)c1C(=O)c1sc2cc(O)ccc2c1Oc1ccc(CCN2CC[C@H](C)C2)cc1 [Compound 118, (S)-(4-fluoro-2,6-dimethylphenyl)(6-hydroxy-3-(4-(2-(3-methylpyrrolidin-1-yl)ethyl)phenoxy)benzo[b]thiophen-2-yl)methanone] | *** (*** denotes 41-70% Estrogen Receptor remaining)
> 6.00 | > 4.30 | Cc1cc(F)cc(C)c1C(=O)c1sc2cc(O)ccc2c1Oc1ccc(C2CCCNC2)cc1 (stereo not shown) [Compound 103, (4-fluoro-2,6-dimethylphenyl)(6-hydroxy-3-(4-(piperidin-3-yl)phenoxy)benzo[b]thiophen-2-yl)methanone] | **** (**** denotes 0-40% Estrogen Receptor remaining)
> 6.00 | > 6.00 | Cc1cc(F)cc(C)c1C(=O)c1sc2cc(O)ccc2c1Oc1ccc(CCN)cc1 [Compound 104, (3-(4-(2-aminoethyl)phenoxy)-6-hydroxybenzo[b]thiophen-2-yl)(4-fluoro-2,6-dimethylphenyl)methanone] | *** (*** denotes 41-70% Estrogen Receptor remaining)
> 4.30 | > 6.00 | Cc1cc(F)cc(C)c1C(=O)c1sc2cc(O)ccc2c1-c1ccc(OCCN2CCC(CF)CC2)cc1 [Compound 124, (4-fluoro-2,6-dimethylphenyl)(3-(4-(2-(4-(fluoromethyl)piperidin-1-yl)ethoxy)phenyl)-6-hydroxybenzo[b]thiophen-2-yl)methanone] | *** (*** denotes 41-70% Estrogen Receptor remaining)
 |  | CCNCCc1ccc(CN(CC)c2cc(OC)ccc2[C@@H]2CCc3cc(O)ccc3C2)cc1.Cl.Cl (stereo in doubt) [RAD- 1901, reference compound] | **** (**** denotes 0-40% Estrogen Receptor remaining)
> 6.00 | > 6.00 | Cc1cc(F)cc(C)c1C(=O)c1sc2cc(O)ccc2c1Oc1ccc(CN)cc1 [Compound 115, (3-(4-(aminomethyl)phenoxy)-6-hydroxybenzo[b]thiophen-2-yl)(4-fluoro-2,6-dimethylphenyl)methanone] | *** (*** denotes 41-70% Estrogen Receptor remaining)
> 4.30 | > 6.00 | Cc1cc(F)cc(C)c1C(=O)c1sc2cc(O)ccc2c1-c1ccc(OCCN2CCC(CF)C2)cc1 (stereo not shown) [Compound 123, (4-fluoro-2,6-dimethylphenyl)(3-(4-(2-(3-(fluoromethyl)pyrrolidin-1-yl)ethoxy)phenyl)-6-hydroxybenzo[b]thiophen-2-yl)methanone] | *** (*** denotes 41-70% Estrogen Receptor remaining)
 |  | Cc1cc(F)cc(C)c1C(=O)c1sc2cc(O)ccc2c1Oc1ccc(OCCN2CCCCC2)cc1 [Compound 106, (4-fluoro-2,6-dimethylphenyl)(6-hydroxy-3-(4-(2-(piperidin-1-yl)ethoxy)phenoxy)benzo[b]thiophen-2-yl)methanone] | *** (*** denotes 41-70% Estrogen Receptor remaining)
 |  | Cc1cc(F)cc(C)c1C(=O)c1sc2cc(O)ccc2c1Oc1ccc(OCCN2CCCCCC2)cc1 [Compound 107, (3-(4-(2-(azepan-1-yl)ethoxy)phenoxy)-6-hydroxybenzo[b]thiophen-2-yl)(4-fluoro-2,6-dimethylphenyl)methanone] | *** (*** denotes 41-70% Estrogen Receptor remaining)
> 6.00 | > 6.00 | Cc1cc(F)cc(C)c1C(=O)c1sc2cc(O)ccc2c1-c1ccc(CCN2CC(CF)C2)cc1 [Compound 119, (4-fluoro-2,6-dimethylphenyl)(3-(4-(2-(3-(fluoromethyl)azetidin-1-yl)ethyl)phenyl)-6-hydroxybenzo[b]thiophen-2-yl)methanone] | *** (*** denotes 41-70% Estrogen Receptor remaining)
> 6.00 | > 6.00 | CCNCCc1ccc(Oc2c(C(=O)c3c(C)cc(F)cc3C)sc3cc(O)ccc23)cc1 [Compound 100, (3-(4-(2-(ethylamino)ethyl)phenoxy)-6-hydroxybenzo[b]thiophen-2-yl)(4-fluoro-2,6-dimethylphenyl)methanone] | **** (**** denotes 0-40% Estrogen Receptor remaining)
> 6.00 | > 6.00 | Cc1cc(F)cc(C)c1C(=O)c1sc2cc(O)ccc2c1Oc1ccc(CN(C)C)cc1 [Compound 114, (3-(4-((dimethylamino)methyl)phenoxy)-6-hydroxybenzo[b]thiophen-2-yl)(4-fluoro-2,6-dimethylphenyl)methanone] | ** (** denotes 71-90% Estrogen Receptor remaining)
> 6.00 | > 4.30 | Cc1cc(F)cc(C)c1C(=O)c1sc2cc(O)ccc2c1Oc1ccc(CCNC(C)C)cc1 [Compound 105, (4-fluoro-2,6-dimethylphenyl)(6-hydroxy-3-(4-(2-(isopropylamino)ethyl)phenoxy)benzo[b]thiophen-2-yl)methanone] | **** (**** denotes 0-40% Estrogen Receptor remaining)
 |  | Cc1cc(F)cc(C)c1C(=O)c1sc2cc(O)ccc2c1Oc1ccc(OCCN2CCCC2)cc1 [Compound 108, (4-fluoro-2,6-dimethylphenyl)(6-hydroxy-3-(4-(2-(pyrrolidin-1-yl)ethoxy)phenoxy)benzo[b]thiophen-2-yl)methanone] | *** (*** denotes 41-70% Estrogen Receptor remaining)
> 6.00 | > 6.00 | CNCCCc1ccc(Oc2c(C(=O)c3c(C)cc(F)cc3C)sc3cc(O)ccc23)cc1 [Compound 116, (4-fluoro-2,6-dimethylphenyl)(6-hydroxy-3-(4-(3-(methylamino)propyl)phenoxy)benzo[b]thiophen-2-yl)methanone] | *** (*** denotes 41-70% Estrogen Receptor remaining)
> 6.00 | > 6.00 | CCN(CC)CCc1ccc(Oc2c(C(=O)c3c(C)cc(F)cc3C)sc3cc(O)ccc23)cc1 [Compound 112, (3-(4-(2-(diethylamino)ethyl)phenoxy)-6-hydroxybenzo[b]thiophen-2-yl)(4-fluoro-2,6-dimethylphenyl)methanone] | *** (*** denotes 41-70% Estrogen Receptor remaining)
> 6.00 | > 6.00 | Cc1cc(F)cc(C)c1C(=O)c1sc2cc(O)ccc2c1Oc1ccc(CCNC2CCCCC2)cc1 [Compound 110, (3-(4-(2-(cyclohexylamino)ethyl)phenoxy)-6-hydroxybenzo[b]thiophen-2-yl)(4-fluoro-2,6-dimethylphenyl)methanone] | *** (*** denotes 41-70% Estrogen Receptor remaining)
> 6.00 | > 6.00 | CNCc1ccc(Oc2c(C(=O)c3c(C)cc(F)cc3C)sc3cc(O)ccc23)cc1 [Compound 113, (4-fluoro-2,6-dimethylphenyl)(6-hydroxy-3-(4-((methylamino)methyl)phenoxy)benzo[b]thiophen-2-yl)methanone] | *** (*** denotes 41-70% Estrogen Receptor remaining)
> 6.00 | > 6.00 | Cc1cc(F)cc(C)c1C(=O)c1sc2cc(O)ccc2c1Oc1ccc(CCN2CC(CF)C2)cc1 [Compound 117, (4-fluoro-2,6-dimethylphenyl)(3-(4-(2-(3-(fluoromethyl)azetidin-1-yl)ethyl)phenoxy)-6-hydroxybenzo[b]thiophen-2-yl)methanone] | *** (*** denotes 41-70% Estrogen Receptor remaining)
